Series [1] is described as follows: Thermodynamic aqueous solubility of the compound at pH 6.8. It is filed as physicochemical. Particulars: for solubility thermodynamic: aqueous, read-out: Therm_solubility; for Therm_solubility: buffer.
The subject of series [2] is Rattus norvegicus. Nature of the series: AUC in rat at 4.2 uM/kg, po. Type of series: ADME, organism-based. As to conditions: in vivo.
The nature of series [3]: High throughput kinetic solubility of the compound at pH 6.8. It is filed as physicochemical. As to conditions: buffer, read-out: Kinetic_solubility.
Series [4] has as its target 3',5'-cyclic-AMP phosphodiesterase 4D (Homo sapiens, UniProt Q08499). Kind of series: Inhibition of human PDE4D.
For series [5], the system named is Rattus norvegicus. Kind of series: Half life in po dosed rat. It is filed as ADME, organism-based. As to conditions: in vivo.
In series [6] the test system is Rattus norvegicus. Nature of the series: AUC in po dosed rat. It is filed as ADME, organism-based. Particulars: in vivo.
The test system of series [7] is Rattus norvegicus. Kind of series: AUC in rat at 2.1 uM/kg, po. Type of series: ADME, organism-based. Particulars: in vivo.
The subject of series [8] is Rattus norvegicus. Kind of series: Oral bioavailability in rat at 2.1 uM/kg. As to conditions: in vivo. It is filed as ADME, organism-based.
Series [9] has as its system Rattus norvegicus. Kind of series: Volume of distribution at steady state in rat at 1.05 uM/kg, iv. Type of series: ADME, organism-based. Particulars: in vivo.
For series [10], the system named is Rattus norvegicus. Nature of the series: Half life in rat at 1.05 uM/kg, iv. Type of series: ADME, organism-based. As to conditions: in vivo.

Each structure is given as a SMILES string. ≈ marks a conversion by molar mass, not a printed value.

We go through 11 compounds from ChEMBL document CHEMBL3603785, “Discovery and Optimization of 4-(8-(3-Fluorophenyl)-1,7-naphthyridin-6-yl)transcyclohexanecarboxylic Acid, an Improved PDE4 Inhibitor for the Treatment of Chronic Obstructive Pulmonary Disease (COPD)” (J Med Chem, 2015).

3',5'-cyclic-AMP phosphodiesterase 4D, sequence (Q08499 whole entry): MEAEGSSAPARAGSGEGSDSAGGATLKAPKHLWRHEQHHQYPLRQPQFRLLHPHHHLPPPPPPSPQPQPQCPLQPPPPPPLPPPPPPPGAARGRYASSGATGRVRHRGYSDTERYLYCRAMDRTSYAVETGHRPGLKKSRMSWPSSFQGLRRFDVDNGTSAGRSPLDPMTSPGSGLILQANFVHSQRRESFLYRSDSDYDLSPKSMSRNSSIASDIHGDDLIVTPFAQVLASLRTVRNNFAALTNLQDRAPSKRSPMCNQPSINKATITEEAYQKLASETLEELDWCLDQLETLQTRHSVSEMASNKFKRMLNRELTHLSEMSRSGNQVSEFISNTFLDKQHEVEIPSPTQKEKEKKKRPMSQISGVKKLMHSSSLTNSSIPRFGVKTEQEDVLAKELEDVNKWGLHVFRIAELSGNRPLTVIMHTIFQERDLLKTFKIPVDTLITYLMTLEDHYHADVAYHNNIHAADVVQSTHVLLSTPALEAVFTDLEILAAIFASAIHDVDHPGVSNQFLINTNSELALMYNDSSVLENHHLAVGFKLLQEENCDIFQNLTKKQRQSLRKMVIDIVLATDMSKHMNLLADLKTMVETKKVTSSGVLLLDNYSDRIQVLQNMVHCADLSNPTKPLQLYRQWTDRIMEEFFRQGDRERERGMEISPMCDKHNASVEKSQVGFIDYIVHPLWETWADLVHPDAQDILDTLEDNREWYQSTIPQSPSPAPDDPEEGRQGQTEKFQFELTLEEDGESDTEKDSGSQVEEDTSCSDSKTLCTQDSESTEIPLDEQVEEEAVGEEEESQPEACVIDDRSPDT

Regarding `O=C(O)C1CCN(c2cc3cccnc3c(-c3cccc(F)c3)n2)CC1`, in series [1], the solubility thermodynamic is more than 4 µg/mL. In the series on Rattus norvegicus [2], this compound displayed an AUC of 3919 µM/min. Moreover, the solubility kinetic in [3] is more than 70 µg/mL.
For `O=C(O)[C@H]1CC[C@H](c2cc3cccnc3c(-c3cccc(Cl)c3)n2)CC1`, the solubility thermodynamic in series [1] stood at 0.14 µg/mL (≈ 0.382 µM). The compound also came in with an IC50 in series [4] of 30 nM. Besides, the solubility kinetic in series [3] was 100 µg/mL (≈ 273 µM).
On to `O=C(O)c1ccc(-c2cc3cccnc3c(-c3ccc4nonc4c3)n2)cc1`, for which the solubility thermodynamic in series [1] was found to be 2.3 µg/mL (≈ 6.24 µM). This compound also showed a t1/2 with Rattus norvegicus [5] of 12 min. The same compound displayed an AUC in the series with Rattus norvegicus [6] of 523 µM/min.
On to `O=C(O)[C@H]1CC[C@H](c2cc3cccnc3c(-c3cccc(F)c3)n2)CC1`, for which the Therm_solubility in series [1] is 0.92 µg/mL. The same compound registered an AUC with Rattus norvegicus [7] of 4408 µM/min. Further, the solubility kinetic in series [3] amounted to 10 µg/mL (≈ 28.5 µM).
Turning to `COc1cccc(-c2nc([C@H]3CC[C@H](C(=O)O)CC3)cc3cccnc23)c1`, the Therm_solubility in series [1] is 0.15 µg/mL. Further, the solubility kinetic in series [3] was 20 µg/mL (≈ 55.2 µM).
In series [1], `N#Cc1cccc(-c2nc([C@H]3CC[C@H](C(=O)O)CC3)cc3cccnc23)c1` returned a Therm_solubility of 0.43 µg/mL. Also, the AUC in the series with Rattus norvegicus [2] was determined as 112900 µM/min. The solubility kinetic in series [3] worked out at 20 µg/mL (≈ 56 µM).
In series [4], `N#Cc1cccc(-c2nc(N3CCOCC3)cc3cccnc23)c1` displayed a half-maximal inhibitory concentration (IC50) of 3 nM.
The same measure, in the same setting: next, `N#Cc1cccc(-c2nc(N3CCC(O)CC3)cc3cccnc23)c1`: 22 nM.
On to `N#Cc1cccc(-c2nc(N3CCC(C(=O)O)CC3)cc3cccnc23)c1`, for which, in [1], the solubility thermodynamic is more than 4 µg/mL. For the same compound, the F in the series with Rattus norvegicus [8] was 157.5%. The AUC with Rattus norvegicus [7] was 2768 µM/min. The solubility kinetic in series [3] came out at 20 µg/mL (≈ 55.8 µM).
For `N#Cc1cccc(-c2nc(N3CCC(CO)CC3)cc3cccnc23)c1`, the IC50 in series [4] came out at 13 nM.
`N#Cc1cccc(-c2nc(N3CCC(C(N)=O)CC3)cc3cccnc23)c1` gave a distribution volume (Vdss) in the series on Rattus norvegicus [9] of 2.9 L/kg. For the same compound, in [4], the IC50 amounted to 8 nM. Also, in the series on Rattus norvegicus [10], the t1/2 worked out at 8 min.

Usually IC50 stands for the concentration that gives 50% inhibition. Read a high IC50 as a need for much substance. A word on the Vdss: it is a proportionality between amount in the body and measured concentration, not a real space.
